In patent US10836732B2, “Compounds for combating arthropods” (priority 2013, dated 2020):

Experiments:
[1] = logP by HPLC on reversed-phase column (C18), EEC Directive 79/831 Annex V.A8; format: physicochemical
[2] = tested on: Ctenocephalides felis; assay: Ctenocephalides felis - in vitro contact tests with adult cat fleas; format: in vivo; conditions: 5 μg/cm^2, adult cat fleas, after 48 h
Protocol: (§1) For the coating of the test tubes, 9 mg of active ingredient are first dissolved in 1 ml of acetone p.a. and then diluted to the desired concentration with acetone p.a. 250 μl of the solution are distributed homogeneously on the inner walls and base of a 25 ml test tube by turning and rocking on an orbital shaker (rocking rotation at 30 rpm for 2 h). With 900 ppm active ingredient solution and internal surface area 44.7 cm^2, given homogeneous distribution, an area-based dose of 5 μg/cm^2 is achieved.
After the solvent has evaporated off, the tubes are populated with 5-10 adult cat fleas (Ctenocephalides felis), sealed with a perforated plastic lid and incubated in a horizontal position at room temperature and ambient humidity. After 48 h, efficacy is determined. To this end, the test tubes are stood upright and the fleas are knocked to the base of the tube. Fleas which remain motionless at the base or move in an uncoordinated manner are considered to be dead or moribund.
100% efficacy means that all the fleas were dead or moribund. 0% efficacy means that no fleas were harmed.

[3] = tested on: Rhipicephalus sanguineus; assay: Rhipicephalus sanguineus - in vitro contact tests with adult brown dog ticks; format: in vivo; conditions: 5 μg/cm^2, adult dog ticks, after 48 h
Protocol: as §1, with “surface” for “surface area”
After the solvent has evaporated off, the tubes are populated with 5-10 adult dog ticks (Rhipicephalus sanguineus), sealed with a perforated plastic lid and incubated in a horizontal position in the dark at room temperature and ambient humidity. After 48 h, efficacy is determined To this end, the ticks are knocked to the floor of the tube and incubated on a hotplate at 45-50° C. for not more than 5 min Ticks which remain motionless on the floor or move in such an uncoordinated manner that they are unable to deliberately avoid the heat by climbing upwards are considered to be dead or moribund.
An efficacy of 100% means that all the ticks were dead or moribund. 0% efficacy means that none of the ticks had been harmed.

[4] = tested on: Amblyomma hebraeum; assay: Amblyomma hebaraeum - test (tick nymphs, immersion); format: in vivo; conditions: 100 ppm, tick nymphs immersed one minute, after 42 days
Protocol: (§2) Solvent: dimethyl sulphoxide
(§3) To produce an appropriate active ingredient formulation, 10 mg of active ingredient are mixed with 0.5 ml of dimethyl sulphoxide, and the concentrate is diluted with water to the desired concentration.
Tick nymphs (Amblyomma hebraeum) are placed into perforated plastic beakers and immersed in the desired concentration for one minute. The ticks are transferred on filter paper into a Petri dish and stored in a climate-controlled cabinet.
After 42 days, the kill in % is determined 100% means that all of the ticks have been killed; 0% means that none of the ticks have been killed.

[5] = tested on: Boophilus microplus Parkhurst strain, SP-resistant; assay: Boophilus microplus - dip test; format: in vivo; conditions: 100 ppm, adult engorged female cattle ticks, after 7 days
Protocol: Test animals: cattle ticks (Boophilus microplus) Parkhurst strain, SP-resistant
as §2
10 mg of active ingredient are dissolved in 0.5 ml of dimethyl sulphoxide. For the purpose of producing a suitable formulation, the active ingredient solution is diluted with water to the concentration desired in each case.
This active ingredient formulation is pipetted into tubes. 8-10 adult engorged female cattle ticks (Boophilus microplus) are transferred into a further tube with holes. The tube is immersed into the active ingredient formulation, and all the ticks are completely wetted. After the liquid has run out, the ticks are transferred on filter discs into plastic dishes and stored in a climate-controlled room.
(§4) Efficacy is assessed after 7 days by laying of fertile eggs. Eggs which are not visibly fertile are stored in a climate-controlled cabinet until the larvae hatch after about 42 days. An efficacy of 100% means that none of the ticks has laid any fertile eggs; 0% means that all the eggs are fertile.

[6] = tested on: Boophilus microplus; assay: Boophilus microplus - injection test; format: in vivo; conditions: 20 μg/animal, injected into engorged adult female cattle ticks, after 7 days
Protocol: as §2
To produce an appropriate active ingredient formulation, 10 mg of active ingredient are mixed with 0.5 ml of solvent and the concentrate is diluted with solvent to the desired concentration.
1 μl of the active ingredient solution is injected into the abdomen of 5 engorged adult female cattle ticks (Boophilus microplus). The animals are transferred into dishes and kept in a climate-controlled room.
as §4

[7] = tested on: Ctenocephalides felis; assay: Ctenocephalides felis - oral test; format: in vivo; conditions: 100 ppm in citrated cattle blood, adult cat fleas, after 2 days
Protocol: as §2
For the purpose of producing an appropriate active ingredient formulation, 10 mg of active ingredient are mixed with 0.5 ml of dimethyl sulphoxide. Dilution with citrated cattle blood gives the desired concentration.
About 20 unfed adult cat fleas (Ctenocephalides felis) are placed into a chamber which is closed at the top and bottom with gauze. A metal cylinder whose bottom end is closed with parafilm is placed onto the chamber. The cylinder contains the blood/active ingredient preparation, which can be imbibed by the fleas through the parafilm membrane.
After 2 days, the kill in % is determined 100% means that all of the fleas have been killed; 0% means that none of the fleas have been killed.

[8] = tested on: Lucilia cuprina; assay: Lucilia cuprina - test; format: in vivo; conditions: 100 ppm, L1 larvae, after 2 days
Protocol: as §2, §3
About 20 L1 larvae of the Australian sheep blowfly (Lucilia cuprina) are transferred into a test vessel containing minced horsemeat and the active ingredient preparation of the desired concentration.
After 2 days, the kill in % is determined 100% means that all the larvae have been killed; 0% means that none of the larvae have been killed.

[9] = tested on: Musca domestica; assay: Musca domestica - test; format: in vivo; conditions: 100 ppm, adult houseflies, after 2 days
Protocol: as §2, §3
Vessels containing a sponge treated with sugar solution and the active ingredient formulation of the desired concentration are populated with 10 adult houseflies (Musca domestica).
After 2 days, the kill in % is determined 100% means that all of the flies have been killed; 0% means that none of the flies have been killed.

[10] = tested on: Phaedon cochleariae; assay: Phaedon cochleariae - spray test; format: in vivo; conditions: Chinese cabbage leaf discs, after 7 days
Protocol: (§5) Solvent: 78.0 parts by weight of acetone
(§6) • 1.5 parts by weight of dimethylformamide Emulsifier: alkylaryl polyglycol ether
(§7) To produce an appropriate active ingredient formulation, 1 part by weight of active ingredient is dissolved using the specified parts by weight of solvent and made up with water containing an emulsifier concentration of 1000 ppm until the desired concentration is attained. To produce further test concentrations, the preparation is diluted with emulsifier-containing water.
Discs of Chinese cabbage leaves (Brassica pekinensis) are sprayed with an active ingredient formulation of the desired concentration and, after drying, populated with larvae of the mustard beetle (Phaedon cochleariae).
After 7 days, efficacy in % is determined 100% means that all the beetle larvae have been killed; 0% means that no beetle larvae have been killed.

[11] = tested on: Spodoptera frugiperda; assay: Spodoptera frugiperda - spray test; format: in vivo; conditions: maize leaf discs, after 7 days
Protocol: as §5, §6, §7
Leaf discs of maize (Zea mays) are sprayed with an active ingredient formulation of the desired concentration and, after drying, populated with caterpillars of the armyworm (Spodoptera frugiperda).
After 7 days, efficacy in % is determined. 100% means that all the caterpillars have been killed; 0% means that no caterpillars have been killed.

[12] = tested on: Tetranychus urticae; assay: Tetranychus urticae - spray test, OP-resistant; format: in vivo; conditions: bean leaf discs, after 6 days
Protocol: as §5, §6, §7
Discs of bean leaves (Phaseolus vulgaris) infested by all stages of the greenhouse red spider mite (Tetranychus urticae) are sprayed with an active ingredient formulation of the desired concentration.
After 6 days, efficacy in % is determined 100% means that all the spider mites have been killed; 0% means that none of the spider mites have been killed.

[13] = tested on: Anopheles funestus strain FUMOZ-R; assay: Anopheles test (ANPHFU surface treatment); format: in vivo; conditions: 20 mg/m^2, glazed tile, exposure 30 minutes, 24 hours after contact
Protocol: Solvent: acetone+2000 ppm rapeseed oil methyl ester (RME)
To produce an appropriate active ingredient formulation, the active ingredient is dissolved in the solvent (2 mg/ml). The active ingredient formulation is pipetted onto a glazed tile and, after it has dried off, adult mosquitoes of the species Anopheles funestus strain FUMOZ-R (Hunt et al., Med Vet Entomol. 2005 September; 19(3):271-5) are placed onto the treated tile. The exposure time is 30 minutes.
24 hours after contact with the treated surface, mortality in % is determined 100% means that all mosquitoes have been killed; 0% means that none of the mosquitoes have been killed.

[14] = tested on: Myzus persicae; assay: Myzus persicae - spray test; format: in vivo; conditions: 500 g/ha, Chinese cabbage leaf discs, after 6 days
Protocol: Solvent: 78 parts by weight of acetone
as §6, §7
Discs of Chinese cabbage leaves (Brassica pekinensis) infested by all stages of the green peach aphid (Myzus persicae) are sprayed with an active ingredient formulation of the desired concentration.
After 6 days, efficacy in % is determined. 100% means that all the aphids have been killed; 0% means that none of the aphids have been killed.

SMILES | logP [1] | efficacy (dead or moribund) [2] | efficacy (dead or moribund) [3] | efficacy (kill in %) [4] | efficacy (no fertile eggs laid) [5] | efficacy (no fertile eggs laid) [6] | efficacy (kill in %) [7] | efficacy (kill in %) [8] | efficacy (kill in %) [9] | efficacy (beetle larvae killed) ([10]; 100 g/ha) | efficacy (caterpillars killed) ([11]; 100 g/ha) | efficacy (spider mites killed) ([12]; 100 g/ha) | efficacy (mortality in %) [13] | efficacy (aphids killed) [14] | efficacy (beetle larvae killed) ([10]; 500 g/ha) | efficacy (caterpillars killed) ([11]; 500 g/ha) | efficacy (spider mites killed) ([12]; 500 g/ha)
O=C(NC1CC1)c1cc(-n2cc(-c3c(Cl)cc(C(F)(C(F)(F)F)C(F)(F)F)cc3Cl)nn2)ccc1Cl [I-T48-3] | 4.3 | 100% | 100% | 90% | 90% | 100% | 100% | 100% | 100% | 100% | 100% | 100% | – | – | – | – | –
Cc1cc(C(F)(C(F)(F)F)C(F)(F)F)cc(C)c1-c1cn(-c2ccc(Cl)c(C(=O)NCC(F)(F)F)c2)nn1 [I-T48-5] | 4.5 | – | – | – | – | 100% | 100% | 100% | 100% | 100% | 100% | – | – | – | – | – | –
Cc1cc(C(F)(C(F)(F)F)C(F)(F)F)cc(C)c1-c1cn(-c2ccc(Cl)c(C(=O)NC3CSC3)c2)nn1 [I-T48-6] | 4.5 | – | – | – | – | 100% | 100% | 100% | 100% | 100% | 100% | 100% | – | – | – | – | –
N#CC1(NC(=O)c2cc(-n3cc(-c4c(Cl)cc(C(F)(C(F)(F)F)C(F)(F)F)cc4Cl)nn3)ccc2Cl)CC1 [I-T48-4] | 4.2 | 100% | 100% | – | – | 100% | 100% | 100% | 100% | 100% | 100% | 100% | 90-100% | – | – | – | –
Cc1cc(C(F)(C(F)(F)F)C(F)(F)F)cc(C)c1-c1cn(-c2cnc(Cl)c(C(=O)NC3(C#N)CC3)c2)nn1 [I-T48-8] | – | – | – | 100% | 100% | 100% | 100% | – | – | – | – | – | – | 100% | 100% | 100% | 100%
Cc1cc(C(F)(C(F)(F)F)C(F)(F)F)cc(C)c1-c1cn(-c2cnc(Cl)c(C(=O)NC3CC3)c2)nn1 [I-T48-7] | – | – | 100% | 100% | 100% | 100% | 100% | 100% | 100% | – | – | – | – | 100% | 100% | 100% | 100%
